Assay results published in patent US20110053982A1, “ETHER BENZYLIDENE PIPERIDINE 5-MEMBERED ARYL CARBOXAMIDE COMPOUNDS USEFUL AS FAAH INHIBITORS” (PFIZER INC., priority 2008, published 2011).
Like-named read-outs stand apart in the source and are kept apart here.

Experiments:
rFAAH = molecular target: T1, rFAAH (Rattus norvegicus, UniProt P97612); assay: FAAH assay, rFAAH kobs/I; type: biochemical; conditions: additional data table, unit not given
T1 sequence (P97612 1-579): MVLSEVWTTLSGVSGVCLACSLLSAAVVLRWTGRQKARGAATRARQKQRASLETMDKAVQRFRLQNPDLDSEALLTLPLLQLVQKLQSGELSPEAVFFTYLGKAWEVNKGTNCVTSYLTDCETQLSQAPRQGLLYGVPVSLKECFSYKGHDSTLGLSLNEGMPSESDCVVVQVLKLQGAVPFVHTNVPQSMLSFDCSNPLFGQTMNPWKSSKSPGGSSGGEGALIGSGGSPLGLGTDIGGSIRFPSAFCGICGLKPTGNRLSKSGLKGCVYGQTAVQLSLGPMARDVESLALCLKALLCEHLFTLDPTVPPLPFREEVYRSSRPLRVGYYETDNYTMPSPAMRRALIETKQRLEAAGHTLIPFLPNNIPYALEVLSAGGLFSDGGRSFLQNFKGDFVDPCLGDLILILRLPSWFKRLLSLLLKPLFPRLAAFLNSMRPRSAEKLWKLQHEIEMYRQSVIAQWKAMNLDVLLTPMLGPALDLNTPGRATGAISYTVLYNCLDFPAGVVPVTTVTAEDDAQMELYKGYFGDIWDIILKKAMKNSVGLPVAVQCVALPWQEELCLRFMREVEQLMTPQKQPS

Human FAAH = molecular target: T2, Human FAAH (Homo sapiens, UniProt O00519); assay: FAAH assay, kinetic analysis of irreversible inhibition (kinact/Ki); type: biochemical
T2 construct: made in house
T2 sequence (O00519 32-579 limits assumed): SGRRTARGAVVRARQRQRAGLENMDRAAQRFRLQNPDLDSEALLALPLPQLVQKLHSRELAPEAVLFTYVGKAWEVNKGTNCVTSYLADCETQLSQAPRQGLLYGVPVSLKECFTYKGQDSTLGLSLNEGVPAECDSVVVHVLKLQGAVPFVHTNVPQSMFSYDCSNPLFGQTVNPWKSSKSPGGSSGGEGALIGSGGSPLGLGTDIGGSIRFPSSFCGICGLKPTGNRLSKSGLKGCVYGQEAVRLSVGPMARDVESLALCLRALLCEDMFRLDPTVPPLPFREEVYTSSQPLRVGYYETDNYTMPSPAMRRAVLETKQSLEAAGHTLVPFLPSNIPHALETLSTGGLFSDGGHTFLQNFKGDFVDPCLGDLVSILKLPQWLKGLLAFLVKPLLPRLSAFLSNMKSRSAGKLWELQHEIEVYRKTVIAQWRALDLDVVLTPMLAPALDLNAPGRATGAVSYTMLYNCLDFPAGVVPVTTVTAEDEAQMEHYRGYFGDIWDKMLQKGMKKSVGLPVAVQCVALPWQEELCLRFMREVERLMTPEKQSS
Procedure: A FAAH assay may be carried out in 384-well clear polystyrene plates in a total volume of 50 μl per well. All percents are by volume. To each well is placed the reaction mixture (40 μl) containing 1-4 nM FAAH, 50 mM NaPi, pH 7.4, 3 mM α-ketoglutarate, 0.15 mM NADH, 7.5 U/ml glutamate dehydrogenase, 2 mM ADP, 1 mM EDTA, and 0.1% Triton X-100 (The concentration shown for each component is the final concentration in the assay). To this mixture is added 5 μl of a compound of Examples 1 to 20 at various concentrations prepared in 50% DMSO (or 5 μl 50% DMSO for controls). This is immediately followed by the addition of 5 μl oleamide (500 μM) dissolved in […] and the reaction mixture is mixed for 1.5 min. The final concentrations of DMSO and EtOH in the assay are each 7.5%. The reactions is then incubated at 30° C. and the absorbance at 340 nm is collected over a period of 90 min with readings taken in 30-second intervals using SpectraMax Plus^384 Microplate Spectrophotometer (Molecular Devices, Sunnyvale, Calif.). Human FAAH used in the assay is prepared as described in the patent application WO 2006/067613. The purity of the enzyme used is preferably greater than 98% based on an analysis by SDS-polyacrylamide gel electrophoresis followed by Coomassie Blue staining.
Initial velocity data (V) is obtained from the slopes of the initial progressive curves. They are plotted as a function of substrate concentration and fit to the Michaelis-Menten equation (1) using Prism (GraphPad Software, Inc., San Diego, Calif.) software to obtain Km and Vmax values.
To obtain potencies of irreversible inhibitors, progressive curves consistent with first order inhibition kinetics (two-step irreversible inhibition mechanism) are fit to equation (2) by nonlinear least squares regressions to determine kobs values at each inhibitor concentration, where [P]t is the absorbance at time t, V0 is a constant related to the steady state rate of the uninhibited reaction, and kobs is the first order rate constant for enzyme inactivation. The inhibitor dissociation constant (Ki) and the first order rate
constant of enzyme inactivation at infinite inhibitor concentration (kinact) are then obtained by fitting the kobs vs. [I] curves to equation (3).

[1] = additional data table, unit inferred, read-out: hFAAH_Kinact/Ki

Compound | FAAH_KINACTR:rFAAH:kobs/I (rFAAH) | kinact/KI (Human FAAH; [1]) [M⁻¹ s⁻¹] | kinact/KI (Human FAAH; oleamide substrate, 30° C., pH 7.4, read-out: hFAAH KInact/KI) [M⁻¹ s⁻¹]
Cc1oncc1NC(=O)N1CCC(=Cc2cccc(OCCCC(F)(F)F)c2)CC1 [N-(5-methylisoxazol-4-yl)-4-[3-(4,4,4-trifluorobutoxy)benzylidene]piperidine-1-carboxamide] | <10.0 | 7410 | –
CCCCOc1cccc(C=C2CCN(C(=O)Nc3onc(C)c3C)CC2)c1 [4-(3-butoxybenzylidene)-N-(3,4-dimethylisoxazol-5-yl)piperidine-1-carboxamide] | 2820 | 14800 | –
CCCC(C)Oc1cccc(C=C2CCN(C(=O)Nc3onc(C)c3C)CC2)c1 (centres unmarked) [N-(3,4-dimethylisoxazol-5-yl)-4-[3-(1-methylbutoxy)benzylidene]piperidine-1-carboxamide] | 4610 | 4600 | –
Cn1nnnc1NC(=O)N1CCC(=Cc2cccc(OCC3CCCCO3)c2)CC1 (centres unmarked) [N-(1-methyl-1H-tetrazol-5-yl)-4-[3-(tetrahydro-2H-pyran-2-ylmethoxy)benzylidene]piperidine-1-carboxamide] | 1610 | 7490 | –
O=C(Nc1cnoc1)N1CCC(=Cc2cccc(OC3CCC(F)(F)CC3)c2)CC1 [4-{3-[(4,4-difluorocyclohexyl)oxy]benzylidene}-N-isoxazol-4-ylpiperidine-1-carboxamide] | <10.0 | 1530 | –
Cc1oncc1NC(=O)N1CCC(=Cc2cccc(OCC(C)CC(F)(F)F)c2)CC1 (centres unmarked) [N-(5-methylisoxazol-4-yl)-4-[3-(4,4,4-trifluoro-2-methylbutoxy)benzylidene]piperidine-1-carboxamide] | <11.5 | 3200 | –
Cc1noc(NC(=O)N2CCC(=Cc3cccc(OC4CCC(C)(C)CC4)c3)CC2)c1C [4-{3-[(4,4-dimethylcyclohexyl)oxy]benzylidene}-N-(3,4-dimethylisoxazol-5-yl)piperidine-1-carboxamide] | 4910 | 959 | –
Cc1noc(NC(=O)N2CCC(=Cc3cccc(OC4CCC(F)(F)CC4)c3)CC2)c1C [4-{3-[(4,4-difluorocyclohexyl)oxy]benzylidene}-N-(3,4-dimethylisoxazol-5-yl)piperidine-1-carboxamide] | 1750 | 2540 | –
Cc1noc(NC(=O)N2CCC(=Cc3cccc(OCC(C)CC(F)(F)F)c3)CC2)c1C (centres unmarked) [N-(3,4-dimethylisoxazol-5-yl)-4-[3-(4,4,4-trifluoro-2-methylbutoxy)benzylidene]piperidine-1-carboxamide] | 2530 | 5190 | –
Cc1noc(NC(=O)N2CCC(=Cc3cccc(OCC4CCC(F)(F)CC4)c3)CC2)c1C [4-{3-[(4,4-difluorocyclohexyl)methoxy]benzylidene}-N-(3,4-dimethylisoxazol-5-yl)piperidine-1-carboxamide] | 5360 | 3970 | –

Results, then the compound that gave them:

FAAH_KINACTR:rFAAH:kobs/I (rFAAH) | kinact/KI (Human FAAH; [1]) [M⁻¹ s⁻¹] | kinact/KI (Human FAAH; oleamide substrate, 30° C., pH 7.4, read-out: hFAAH KInact/KI) [M⁻¹ s⁻¹] | Compound
2660 | 12900 | – | Cc1noc(NC(=O)N2CCC(=Cc3cccc(OCCC4CC4)c3)CC2)c1C [4-[3-(2-cyclopropylethoxy)benzylidene]-N-(3,4-dimethylisoxazol-5-yl)piperidine-1-carboxamide]
9280 | 12100 | – | Cc1noc(NC(=O)N2CCC(=Cc3cccc(OCCc4cccc(F)c4)c3)CC2)c1C [N-(3,4-dimethylisoxazol-5-yl)-4-{3-[2-(3-fluorophenyl)ethoxy]benzylidene}piperidine-1-carboxamide]
57.1 | 10600 | – | Cc1cccc(OCCOc2cccc(C=C3CCN(C(=O)Nc4cnoc4C)CC3)c2)c1 [N-(5-methylisoxazol-4-yl)-4-{3-[2-(3-methylphenoxy)ethoxy]benzylidene}piperidine-1-carboxamide]
4760 | 12700 | – | Cc1noc(NC(=O)N2CCC(=Cc3cccc(OCCOC(C)C)c3)CC2)c1C [N-(3,4-dimethylisoxazol-5-yl)-4-[3-(2-isopropoxyethoxy)benzylidene]piperidine-1-carboxamide]
– | – | 5450 | Cc1noc(NC(=O)N2CCC(=Cc3cccc(OCC4CCCCO4)c3)CC2)c1C (centres unmarked) [Example 1, N-(3,4-dimethylisoxazol-5-yl)-4-[3-(tetrahydro-2H-pyran-2-ylmethoxy)benzylidene]piperidine-1-carboxamide]
19.8 | 2900 | – | Cc1oncc1NC(=O)N1CCC(=Cc2cccc(OC3CCC(F)(F)CC3)c2)CC1 [4-{3-[(4,4-difluorocyclohexyl)oxy]benzylidene}-N-(5-methylisoxazol-4-yl)piperidine-1-carboxamide]
<11.3 | 646 | – | Cc1oncc1NC(=O)N1CCC(=Cc2cccc(OCC3CCCCO3)c2)CC1 (centres unmarked) [N-(5-methylisoxazol-4-yl)-4-[3-(tetrahydro-2H-pyran-2-ylmethoxy)benzylidene]piperidine-1-carboxamide]
<11.9 | 903 | – | Cc1ncsc1CCOc1cccc(C=C2CCN(C(=O)Nc3cnoc3C)CC2)c1 [N-(5-methylisoxazol-4-yl)-4-{3-[2-(4-methyl-1,3-thiazol-5-yl)ethoxy]benzylidene}piperidine-1-carboxamide]
18 | 384 | – | O=C(Nc1cnoc1)N1CCC(=Cc2cccc(OCC3CCCCO3)c2)CC1 (centres unmarked) [N-isoxazol-4-yl-4-[3-(tetrahydro-2H-pyran-2-ylmethoxy)benzylidene]piperidine-1-carboxamide]
16.2 | 1730 | – | Cc1oncc1NC(=O)N1CCC(=Cc2cccc(OCC3CCC(F)(F)CC3)c2)CC1 [4-{3-[(4,4-difluorocyclohexyl)methoxy]benzylidene}-N-(5-methylisoxazol-4-yl)piperidine-1-carboxamide]
208 | 2150 | – | Cc1oncc1NC(=O)N1CCC(=Cc2cccc(OC(C)Cc3ccccc3)c2)CC1 (centres unmarked) [N-(5-methylisoxazol-4-yl)-4-[3-(1-methyl-2-phenylethoxy)benzylidene]piperidine-1-carboxamide]
160 | 2860 | – | Cc1oncc1NC(=O)N1CCC(=Cc2cccc(OC3CCC(C)(C)CC3)c2)CC1 [4-{3-[(4,4-dimethylcyclohexyl)oxy]benzylidene}-N-(5-methylisoxazol-4-yl)piperidine-1-carboxamide]
2580 | 7170 | – | Cc1noc(NC(=O)N2CCC(=Cc3cccc(OCCCc4cnoc4)c3)CC2)c1C [N-(3,4-dimethylisoxazol-5-yl)-4-[3-(3-isoxazol-4-ylpropoxy)benzylidene]piperidine-1-carboxamide]
<12.6 | 2670 | – | Cc1oncc1NC(=O)N1CCC(=Cc2cccc(OCCOC(C)C)c2)CC1 [4-[3-(2-isopropoxyethoxy)benzylidene]-N-(5-methylisoxazol-4-yl)piperidine-1-carboxamide]
